Assay results: paper PMC7926726, “The Wound Healing Peptide, AES16-2M, Ameliorates Atopic Dermatitis In Vivo” (Molecules, 2021)
Ends that are not written are not given here.

Test: Water solubility of the peptide
Assay type: physicochemical
Conditions: in water; analysed by Anygen; previously described [16] and updated in this study
Protocol: To investigate whether the wound healing peptide, AES16-2M, could improve AD, Dermatophagoides farina (Df) body-induced AD model was established, and 10 mg/kg of AES16-2M was used as the optimal dose determined by preliminary experiments. […] Since increased IgE and TSLP production is closely related to AD pathology, the total IgE levels from sera were determined.
AES16-2M was synthesized and analyzed for purity, water solubility, and molecular weight by Anygen (Gwang Ju, Korea). Peptide with purity over 95% was used for this study.

## REGRT [AES16-2M]
  water solubility: over 10.0 mg/mL
